According to patent publication US11345912B2, “Directed evolution of multivalent glycopeptides that tightly bind to target proteins” (Brandeis University, priority 2013, dated 2022):

Target: 2G12
Experiment: Binding curve and KD determination of 2G12-glycopeptide interaction (radiolabeled glycopeptide, protein G magnetic bead capture, scintillation counting)
Conditions: Table 4, error = standard error of fit; for Kd: ribosomally translated radiolabeled glycopeptide with His6/FLAG tag, room temperature, fit Fbound=(Fmax[2G12])/(KD+[2G12])
Protocol: The resulting mRNAs were purified by denaturing PAGE or MEGAclear kit (Ambion), and 1 μM RNA was used in PURE system translation (reaction volume of translation varied). Typically, 25 μL of translated reaction was diluted with 100 μL of binding buffer (50 mM Tris-HCl, pH 7.8, 300 mM NaCl, 5 mM β-mercaptoethanol) and 25 μL of Ni-NTA agarose suspension (Qiagen), and tumbled at room temperature for 1 h. The resins were transferred to 0.22 μm spin-filter rinsing with 100 μL of bind buffer, and washed with 3×200 μL of bind buffer and 2×200 μL of wash buffer (50 mM Tris-HCl, pH 7.8, 5 mM β-mercaptoethanol). The bound peptides were eluted with 2×25 μL of 0.1% TFA. The eluted peptides were analyzed by MALDI-TOF MS, using α-Cyano-4-hydroxycinnamic acid matrix (Sigma), with or without desalting with ZipTip C18 resin (Millipore). For calibration of MALDI-TOF-MS, at least two of the following standards, bovine insulin, E. coli thioredoxin and/or horse apomyoglobin were used. To quantitate peptide yields, the radioactivities were measured by liquid scintillation counting. For the click reaction, the translated and purified peptides were mixed with 0.1% (v/v) Triton X-100, and then dialyzed against H2O containing 0.1% (v/v) Triton X-100 using Slide-A-Lyzer MINI Dialysis Devices, 3.5K MWCO (Thermo Scientific) overnight to desalt. After dialysis, the peptides were divided into two portions: one was glycosylated via the click reaction, while the other was saved as a non-glycosylated peptide control. […] The glycosylated peptide (<4 pmol) was incubated with 100 nM 2G12 in selection buffer (40 μL) at room temp. The solution was then tumbled 30 min with 0.12 mg of equilibrated Dynabeads Protein G to capture 2G12-glycopeptide complex. Beads were then washed with 3×40 μL of selection buffer and resuspended in 10 μL of selection buffer. The resuspended beads were heated at 70° C. for 30 min to denature 2G12 and elute glycopeptides, chilled on ice for 5 min, and tumbled at room temperature for 10 min. The magnetically isolated supernatant was recovered and the beads were rinsed with 10 μL of selection buffer.
Then, the solution was added to 0.12 mg of pre-equilibrated Dynabeads Protein G and tumbled at room temperature for 30 min. The supernatant was removed and the beads were washed with 3×40 μL of selection buffer. The radioactivities of the supernatant and wash solutions were measured by liquid scintillation counting as unbound fractions. […] The beads were resuspended in 40 μL of selection buffer, heated at 70° C. for 30 min to elute the bound glycopeptides, chilled on ice for 5 min, and tumbled at room temperature for 10 min. The supernatant was removed, and the beads were washed with 40 μL of selection buffer and resuspended in 40 μL of selection buffer. The radioactivities of these solutions and suspensions were measured by liquid scintillation counting separately and the values were combined as apparent bound fractions. […] All experiments were done at least in triplicate. KDs were calculated as described in the footnote of Table 4 (below).

SMILES | Kd | Fmax [%] (maximal fraction bound from curve fit)
CC[C@H](C)[C@H](NC(=O)[C@H](CC(=O)O)NC(=O)[C@@H]1CCCN1C(=O)[C@H](C)NC(=O)[C@H](C)NC(=O)[C@H](CO)NC(=O)[C@@H](NC(=O)[C@@H]1CCCN1C(=O)[C@H](Cc1c[nH]cn1)NC(=O)[C@H](CCc1cn(C2CCC(OC3O[C@H](CO[C@H]4O[C@H](CO[C@H]5O[C@H](CO)[C@@H](O)[C@H](O)[C@@H]5O[C@H]5O[C@H](CO)[C@@H](O)[C@H](O)[C@@H]5O)[C@@H](O)[C@H](O[C@H]5O[C@H](CO)[C@@H](O)[C@H](O)[C@@H]5O[C@H]5O[C@H](CO)[C@@H](O)[C@H](O)[C@@H]5O)[C@@H]4O)[C@@H](O)[C@H](O[C@H]4O[C@H](CO)[C@@H](O)[C@H](O)[C@@H]4O[C@H]4O[C@H](CO)[C@@H](O)[C@H](O)[C@@H]4O[C@H]4O[C@H](CO)[C@@H](O)[C@H](O)[C@@H]4O)[C@@H]3O)CC2)nn1)NC(=O)[C@H](C)NC(=O)[C@H](Cc1c[nH]cn1)NC(=O)[C@H](Cc1ccccc1)NC(=O)[C@H](Cc1ccc(O)cc1)NC(=O)[C@H](Cc1c[nH]cn1)NC(=O)[C@H](C)NC(=O)[C@H](CO)NC(=O)[C@H](CCCNC(=N)N)NC(=O)[C@H](CO)NC(=O)[C@H](CC(C)C)NC(=O)[C@H](CCc1cn(C2CCC(OC3O[C@H](CO[C@H]4O[C@H](CO[C@H]5O[C@H](CO)[C@@H](O)[C@H](O)[C@@H]5O[C@H]5O[C@H](CO)[C@@H](O)[C@H](O)[C@@H]5O)[C@@H](O)[C@H](O[C@H]5O[C@H](CO)[C@@H](O)[C@H](O)[C@@H]5O[C@H]5O[C@H](CO)[C@@H](O)[C@H](O)[C@@H]5O)[C@@H]4O)[C@@H](O)[C@H](O[C@H]4O[C@H](CO)[C@@H](O)[C@H](O)[C@@H]4O[C@H]4O[C@H](CO)[C@@H](O)[C@H](O)[C@@H]4O[C@H]4O[C@H](CO)[C@@H](O)[C@H](O)[C@@H]4O)[C@@H]3O)CC2)nn1)NC(=O)[C@H](CC(C)C)NC(=O)[C@H](Cc1ccccc1)NC(=O)[C@H](C)NC(=O)[C@@H]1CCCN1C(=O)[C@H](CO)NC(=O)[C@@H]1CCCN1C(=O)[C@H](CS)NC(=O)[C@H](C)NC(=O)[C@@H](NC(=O)[C@H](CCC(N)=O)NC(=O)[C@H](CCc1cn(C2CCC(OC3O[C@H](CO[C@H]4O[C@H](CO[C@H]5O[C@H](CO)[C@@H](O)[C@H](O)[C@@H]5O[C@H]5O[C@H](CO)[C@@H](O)[C@H](O)[C@@H]5O)[C@@H](O)[C@H](O[C@H]5O[C@H](CO)[C@@H](O)[C@H](O)[C@@H]5O[C@H]5O[C@H](CO)[C@@H](O)[C@H](O)[C@@H]5O)[C@@H]4O)[C@@H](O)[C@H](O[C@H]4O[C@H](CO)[C@@H](O)[C@H](O)[C@@H]4O[C@H]4O[C@H](CO)[C@@H](O)[C@H](O)[C@@H]4O[C@H]4O[C@H](CO)[C@@H](O)[C@H](O)[C@@H]4O)[C@@H]3O)CC2)nn1)NC=O)[C@@H](C)O)[C@@H](C)O)C(=O)N[C@@H](CO)C(=O)NCC(=O)N[C@@H](CO)C(=O)NCC(=O)N[C@@H](CO)C(=O)N[C@@H](CC(C)C)C(=O)NCC(=O)N[C@@H](Cc1c[nH]cn1)C(=O)N[C@@H](Cc1c[nH]cn1)C(=O)N[C@@H](Cc1c[nH]cn1)C(=O)N[C@@H](Cc1c[nH]cn1)C(=O)N[C@@H](Cc1c[nH]cn1)C(=O)N[C@@H](Cc1c[nH]cn1)C(=O)N[C@@H](CCCNC(=N)N)C(=O)N[C@@H](CC(=O)O)C(=O)N[C@@H](Cc1ccc(O)cc1)C(=O)N[C@@H](CCCCN)C(=O)N[C@@H](CC(=O)O)C(=O)N[C@@H](CC(=O)O)C(=O)N[C@@H](CC(=O)O)C(=O)N[C@@H](CC(=O)O)C(=O)N[C@@H](CCCCN)C(=O)O (stereo partly drawn) [Clone 6E, XQTACPSPAFLXLSRSAHYFHAXHPTSAAPDIS] | > 128 nM | 
CC[C@H](C)[C@H](NC(=O)[C@@H](NC(=O)[C@@H](NC(=O)[C@H](Cc1c[nH]cn1)NC(=O)[C@H](CC(N)=O)NC(=O)[C@H](CC(=O)O)NC(=O)[C@H](CCc1cn(C2CCC(OC3O[C@H](CO[C@H]4O[C@H](CO[C@H]5O[C@H](CO)[C@@H](O)[C@H](O)[C@@H]5O[C@H]5O[C@H](CO)[C@@H](O)[C@H](O)[C@@H]5O)[C@@H](O)[C@H](O[C@H]5O[C@H](CO)[C@@H](O)[C@H](O)[C@@H]5O[C@H]5O[C@H](CO)[C@@H](O)[C@H](O)[C@@H]5O)[C@@H]4O)[C@@H](O)[C@H](O[C@H]4O[C@H](CO)[C@@H](O)[C@H](O)[C@@H]4O[C@H]4O[C@H](CO)[C@@H](O)[C@H](O)[C@@H]4O[C@H]4O[C@H](CO)[C@@H](O)[C@H](O)[C@@H]4O)[C@@H]3O)CC2)nn1)NC(=O)[C@@H](NC(=O)[C@H](CCCCN)NC(=O)[C@H](CCC(=O)O)NC(=O)[C@H](CCCNC(=N)N)NC(=O)[C@H](CCCCN)NC(=O)[C@H](CS)NC(=O)[C@H](CC(N)=O)NC(=O)[C@@H](NC(=O)[C@H](CCCCN)NC(=O)[C@@H](NC(=O)[C@H](C)NC(=O)[C@H](CCc1cn(C2CCC(OC3O[C@H](CO[C@H]4O[C@H](CO[C@H]5O[C@H](CO)[C@@H](O)[C@H](O)[C@@H]5O[C@H]5O[C@H](CO)[C@@H](O)[C@H](O)[C@@H]5O)[C@@H](O)[C@H](O[C@H]5O[C@H](CO)[C@@H](O)[C@H](O)[C@@H]5O[C@H]5O[C@H](CO)[C@@H](O)[C@H](O)[C@@H]5O)[C@@H]4O)[C@@H](O)[C@H](O[C@H]4O[C@H](CO)[C@@H](O)[C@H](O)[C@@H]4O[C@H]4O[C@H](CO)[C@@H](O)[C@H](O)[C@@H]4O[C@H]4O[C@H](CO)[C@@H](O)[C@H](O)[C@@H]4O)[C@@H]3O)CC2)nn1)NC=O)[C@@H](C)O)[C@@H](C)O)[C@@H](C)O)C(C)C)[C@@H](C)O)C(=O)N[C@@H](CCc1cn(C2CCC(OC3O[C@H](CO[C@H]4O[C@H](CO[C@H]5O[C@H](CO)[C@@H](O)[C@H](O)[C@@H]5O[C@H]5O[C@H](CO)[C@@H](O)[C@H](O)[C@@H]5O)[C@@H](O)[C@H](O[C@H]5O[C@H](CO)[C@@H](O)[C@H](O)[C@@H]5O[C@H]5O[C@H](CO)[C@@H](O)[C@H](O)[C@@H]5O)[C@@H]4O)[C@@H](O)[C@H](O[C@H]4O[C@H](CO)[C@@H](O)[C@H](O)[C@@H]4O[C@H]4O[C@H](CO)[C@@H](O)[C@H](O)[C@@H]4O[C@H]4O[C@H](CO)[C@@H](O)[C@H](O)[C@@H]4O)[C@@H]3O)CC2)nn1)C(=O)N[C@@H](CCCNC(=N)N)C(=O)N[C@@H](CO)C(=O)N[C@H](C(=O)N1CCC[C@H]1C(=O)N[C@@H](Cc1c[nH]c2ccccc12)C(=O)N[C@@H](Cc1ccc(O)cc1)C(=O)N[C@H](C(=O)N[C@@H](Cc1ccc(O)cc1)C(=O)N[C@@H](CCCNC(=N)N)C(=O)N[C@@H](Cc1c[nH]c2ccccc12)C(=O)N[C@@H](CC(C)C)C(=O)N1CCC[C@H]1C(=O)N[C@@H](CC(N)=O)C(=O)NCC(=O)N[C@@H](CO)C(=O)NCC(=O)N[C@@H](CO)C(=O)N[C@@H](CC(C)C)C(=O)NCC(=O)N[C@@H](Cc1c[nH]cn1)C(=O)N[C@@H](Cc1c[nH]cn1)C(=O)N[C@@H](Cc1c[nH]cn1)C(=O)N[C@@H](Cc1c[nH]cn1)C(=O)N[C@@H](Cc1c[nH]cn1)C(=O)N[C@@H](Cc1c[nH]cn1)C(=O)N[C@@H](CCCNC(=N)N)C(=O)N[C@@H](CC(=O)O)C(=O)N[C@@H](Cc1ccc(O)cc1)C(=O)N[C@@H](CCCCN)C(=O)N[C@@H](CC(=O)O)C(=O)N[C@@H](CC(=O)O)C(=O)N[C@@H](CC(=O)O)C(=O)N[C@@H](CC(=O)O)C(=O)N[C@@H](CCCCN)C(=O)O)[C@@H](C)O)[C@@H](C)CC (stereo partly drawn) [Clone 10V1, XATKTNCKREKTXDNHVTIXRSIPWYTYRWLPN] | 1.9 ± 0.17 nM | 97 ± 2.1%
